Measured values reported in patent US20060223779A1, “Method of screening for inhibitors of human Fatty Acid-CoA Ligase 4” (priority 2000, published 2006).

How the values were obtained:
COX-2 stable 293 cells = experiment: Apoptosis in stably transfected 293 cells with inducible COX-2 over-expression; assay type: cell-based, human; conditions: for effect on the prevention of apoptosis by COX-2: AA 300 μM, COX-2 over-expressing cells; for reduction of fatty acid-induced apoptosis by inducing COX-2 over-expression: COX-2 over-expression induced, n=3
Description: (A) Conditional expression level of FACL4 and COX-2 in stably transfected lines. Cells were treated with (+) or without (−) ponasterone (1 μg/ml) for 48 hr, and Western blotting was carried out with anti-FACL4 and anti-COX-2 antibodies, respectively. The loading was normalized with an anti-β actin antibody (ICN Biomedicals). […] The 293 cells stably transfected with an empty control vector (Ctl), FACL4 cDNA, COX-2 cDNA, and both FACL4 and COX-2 cDNAs were uninduced (−Pon) or induced for over-expression (+Pon) as in A. AA (300 μM) was added after 24 hr of induction and apoptosis was determined 44 hr later. […] The plot is a comparison of the relative apoptosis levels among the stable lines and is representative of three independent experiments. The values shown are the averages of triplicate determinations. […] Cells were uninduced (−Pon) or induced for over-expression as above. […] COX inhibitors were administered 6 hr later as indicated. AA (300 μM) was then added after 2 hr and apoptosis was determined 44 hr later. The plot is prepared as in B, and is a representative result from three independent experiments, in which triplicates were performed. Wt=wild-type, Mut=mutant, Met=50 μM 6-methoxy-2-naphthyl acetic acid, Indo=10 μM indomethacin. […] The COX-2, FACL4/COX-2 stable and control cells carrying an empty vector were induced for 48 hr, washed and incubated with 20 μM AA at 37° C. for 30 min. The amount of PGE2 synthesized was determined by ELISA. […] (E) The levels of free AA in the stable lines. The [^3H]
(§1) Cell Death Detection ELISA. Cells were plated on 96 well-plates at 1×10^4 cells per well. AA was applied and apoptotic death was determined after 44 hr with the Cell Death Detection ELISA (Boehringer Mannheim).
Stable cell lines. The ecdysone inducible system (Invitrogen) was used to construct stable lines over-expressing human FACL4, COX-2, COX-2 mutant, and both FACL4 and COX-2. […] The cDNAs were cloned into pIND(SP1) (Neomycin^r). The cDNA constructs, or the empty vector pIND(SP1) were transfected into EcR293 cells, which were then selected in 400 μg/ml geneticin and 400 μg/ml zeocin. […] The double stable line was generated by stably transfecting the COX-2 stable cells with another pIND(SP1)-FACL4 cDNA construct, in which the FACL4 cDNA was cloned into a pIND(SP1) (hygromycin^r) vector. The cells were selected in 400 μg/ml geneticin, 400 μg/ml zeocin, and 50 μg/ml hygromycin B. The positive colonies were screened as described above.

[1] = test system: FACL4/COX-2 double stable cells; experiment: Cell survival of FACL4/COX-2 double stable cells after TNFα or A23187; assay type: cell-based, human
Description: FIG. 5: Enzymatic “sinks” for free arachidonic acid protect against TNFα_ and calcium ionophore_mediated cell killing. (A) Determination of cell survival. The cells were induced (+Pon) or not (−Pon) for 24 hr, and TNFα (1 ng/ml) or the calcium ionophore A23187 (5 μM) was added, and the cells were incubated for another 72 hr. The surviving fraction was determined and is plotted relative to that of the same line without TNFα or A23187 treatment. Ctl denotes control cells harboring an empty vector, while FACL4/COX-2 denotes the double stable line. (B) Measurement of the free AA. The FACL4/COX-2 cells were prelabeled with [^3H] AA, induced, and stimulated with A23187 (5 μM), and [^3H] AA release was measured at the indicated time intervals. The values are from one experiment that is representative of four independent determinations.
Stable cell lines. The ecdysone inducible system (Invitrogen) was used to construct stable lines over-expressing human FACL4, COX-2, COX-2 mutant, and both FACL4 and COX-2. […] The cDNAs were cloned into pIND(SP1) (Neomycin^r). The cDNA constructs, or the empty vector pIND(SP1) were transfected into EcR293 cells, which were then selected in 400 μg/ml geneticin and 400 μg/ml zeocin. A number of single colonies were screened for over-expression of FACL4, COX-2 wild type, and COX-2 mutant by immunoblotting against anti-FACL4 (See Y. Cao et al., 467 FEBS Lett. 263-267 (2000)), and anti-COX-2 antibodies (a gift from Dr. Jacques Maclouf), and by measurement of the CoA ligase activity for FACL4 (See D. B. Wilson et al., 257 J. Biol. Chem. 3510-3515 (1992)), or the PGE2 secretion for COX-2 wild type (ELISA assay, Assay Design, Inc.). The double stable line was generated by stably transfecting the COX-2 stable cells with another pIND(SP1)-FACL4 cDNA construct, in which the FACL4 cDNA was cloned into a pIND(SP1) (hygromycin^r) vector. The cells were selected in 400 μg/ml geneticin, 400 μg/ml zeocin, and 50 μg/ml hygromycin B. The positive colonies were screened as described above.
(§2) Cell survival. Cell viability was determined with the crystal violet staining (See M. Hayakawa et al., 268 J. Biol. Chem. 11290-11295 (1993).

293 cells [2] = experiment: Cell survival (crystal violet staining) in 293 cells; assay type: cell-based, human; conditions: not shown
Description: (§3) FIG. 3: Arachidonic acid induces apoptosis via activation of caspase 3. (A) Determination of cell survival. AA was added to 293 cells at the indicated concentrations and the surviving fraction of cells was determined after 44 hr. The values shown are relative to the viability of cells that were not exposed to AA. (B) Increased apoptosis in cells exposed to AA. Cells were treated with AA (300 μM) or palmitic acid (300 μM) under the same conditions as in A, and then apoptosis was detected with an ELISA. The mean values from triplicate determinations are shown. […] The 293 cells were treated with AA (300 μM; +AA) or vehicle alone (−AA) for 44 hr. The nuclei were stained with DAPI, and DNA strand breaks in individual cells were detected with a fluorescent TUNEL assay. The upper panels are the same field of cells (−AA) photographed under UV (left panels) and FITC filters (right panels). The lower panels illustrate apoptotic cells (+AA). The magnification is 80×. (D) Immunostaining with an anti-active caspase 3 antibody. Upper panels, control cells (−AA); lower panels, cells exposed to 300 μM AA. Left panels, DAPI staining; right panels, immunostaining with an antibody selective for active caspase 3. The magnification is 100×. […] The 293 cells were preincubated with caspase inhibitors (including DMQD, a caspase 3 inhibitor, and YVAD, a caspase 1 and 4 inhibitor (Peptide Institute)) for 1 hr at the indicated concentrations, AA (300 μM) was added, and apoptosis was determined 44 hr later. The values represent the means from triplicate determinations.
as §2

293 cells [3] = experiment: Apoptosis by Cell Death Detection ELISA in 293 cells; assay type: cell-based, human; conditions: for effect of antioxidant pretreatment on AA-induced apoptosis: antioxidant 1 hr, then AA 200 μM
Description: as §3, §1

[4] = test system: colon and prostate cancer cells; conditions: by down-regulating Bcl-2; literature reports; cited from earlier work
HT 29 cells = experiment: Apoptosis by Cell Death ELISA in HT 29 cells; assay type: cell-based
Description: HT 29 Cells were plated in 96 wells. Triacsin C and AA were added (in A), or triacsin C with either indomethacin (Indo) or sulindac (Sul) (in B) were added at the indicated concentrations. Indomethacin and sulindac are both cyclooxygenase (COX) inhibitors. Apoptosis was determined by Cell Death ELISA 44 hr later (A), and 72 hr later (B), respectively. […] The values shown are the means of triplicate determinations.
as §1

For COc1ccc2cc(CC(=O)O)ccc2c1 [6-methoxy-2-naphthylacetic acid], the “effect on the prevention of apoptosis by COX-2” value (COX-2 stable 293 cells; 50 μM) was “abolished the prevention of apoptosis by COX-2” and the “effect on the improvement in cell survival in the double stable cells” value ([1]; double stable cells, not shown) was “partially abolished the improvement in cell survival”.
For CCCCC[C@H](O)/C=C/C=C\C/C=C\C/C=C\CCCC(=O)O [15-HETE], the “effect on cell survival” value (293 cells [2]; 293 cells) was “did not affect cell survival”.
In the case of CC/C=C\C/C=C\C/C=C\C/C=C\C/C=C\C/C=C\CCC(=O)O [DHA, docosahexaenoic acid], the “fold-increase in apoptosis after fatty acid treatment” value (from here on “fold-increase in apoptosis”) (COX-2 stable 293 cells; 100 μM) was 15.1 fold and the “reduction of fatty acid-induced apoptosis by inducing COX-2 over-expression” value (“reduction” for short) (COX-2 stable 293 cells) was 18.5%.
In the case of CC/C=C\C/C=C\C/C=C\C/C=C\C/C=C\CCCC(=O)O [EPA, eicosapentaenoic acid], the “fold-increase in apoptosis” value (COX-2 stable 293 cells; 200 μM) was 9.1 fold and the “reduction” value (COX-2 stable 293 cells) was 34.0%.
For CC(Cc1ccc(O)c(O)c1)C(C)Cc1ccc(O)c(O)c1 (stereo not shown) [NDGA], the induction of apoptosis (293 cells [3]; 293 cells) was “induced apoptosis”.
In the case of CS(=O)(=O)Nc1ccc([N+](=O)[O-])cc1OC1CCCCC1 [NS398], the “reported effect on apoptosis” value [4] is given as “enhance the induction of apoptosis”.
In the case of CCCCC[C@H](O)/C=C/[C@H]1[C@H](O)CC(=O)[C@@H]1C/C=C\CCCC(=O)O [PGE2], the “cell viability in the presence of exogenous AA” value (293 cells [2]; 50 μM added directly) was “did not improve cell viability”.
For CCCCC[C@H](O)/C=C/[C@H]1C(=O)C=C[C@@H]1C/C=C\CCCC(=O)O [PGJ2], the “cell viability in the presence of exogenous AA” value (293 cells [2]; 5 μM added directly) was “did not improve cell viability”.
In the case of CS(=O)(=O)c1ccc(-n2nc(C(F)(F)F)cc2-c2ccc(F)cc2)cc1 [SC-58125], the “reported effect on apoptosis” value [4] is given as “enhance the induction of apoptosis”.
With O=C1O[C@H]([C@@H](O)CO)C(O)=C1O [ascorbic acid] the “effect of antioxidant pretreatment on AA-induced apoptosis” value (from here on “effect of antioxidant pretreatment”) (293 cells [3]; 293 cells, 44 hr) was “apoptosis decreased significantly”.
In the case of COc1ccc2c(c1)c(CC(=O)O)c(C)n2C(=O)c1ccc(Cl)cc1 [indomethacin], the “effect on the prevention of apoptosis by COX-2” value (COX-2 stable 293 cells; 10 μM) was “did not alter the apoptosis response”.
With CCCCCCCC/C=C\CCCCCCCC(=O)O [oleic acid] the “induction of apoptosis by other fatty acids compared with AA” value (293 cells [3]) was “did not cause the same response”.
For CCCCCCCCCCCCCCCC(=O)O [palmitic acid], the “induction of apoptosis by other fatty acids compared with AA” value (293 cells [3]) was “did not cause the same response”, the “apoptosis (mono- and oligo-nucleosomes) over the control” value (293 cells [3]; 293 cells, 300 μM, 44 hr) was “no increase” and the “fold-increase in apoptosis” value (COX-2 stable 293 cells; 200 μM) was 4.2 fold. The “reduction” value (COX-2 stable 293 cells) was 8.1%.
In the case of CCC/C=C/C/C=C/C=C/C=N/NN=O [triacsin C], the “cell death with triacsin C alone” value (HT 29 cells; 2 μM) was “did not cause cell death”, the “increase in apoptosis compared to control cells” value (HT 29 cells; 10 μM) was 9 fold and the induction of apoptosis (HT 29 cells; Cell Death ELISA) was “induced apoptosis in a concentration-dependent manner”. The “increase of the apoptosis-inducing effect of triacsin C in the presence of sulindac” value (HT 29 cells; plus sulindac, 72 hr) was 4-8 fold, the “apoptosis with triacsin C when indomethacin was added” value (HT 29 cells; triacsin C 2 μM plus indomethacin, 72 hr) was “induced apoptosis” and the “sensitization to AA-induced apoptosis” value (HT 29 cells; triacsin C plus AA, 44 hr) was “sensitized cells to AA-induced apoptosis”.
With Cc1c(C)c2c(c(C)c1O)CCC(C)(C(=O)O)O2 (stereo not shown) [trolox] the “effect of antioxidant pretreatment” value (293 cells [3]; 293 cells, 44 hr) was “apoptosis decreased significantly”.
In the case of TNFα, the “surviving fraction, induced cells” value ([1]; FACL4/COX-2 double stable cells induced with ponasterone, TNFα 1 ng/ml or A23187 5 μM, 72 hr, n=3) was 70.5% and the “surviving fraction, uninduced cells” value ([1]; FACL4/COX-2 double stable cells without induction, TNFα 1 ng/ml or A23187 5 μM, 72 hr, n=3) was 43.5%.
With “apo-transferrin: a membrane-impermeable antioxidant” the “effect of antioxidant pretreatment” value (293 cells [3]; 293 cells, 44 hr) was “did not alter AA-induced apoptosis”.
For tocopherol, the “effect of antioxidant pretreatment” value (293 cells [3]; 293 cells, 44 hr) was “apoptosis decreased significantly”.
For z-YVAD-fmk, the “blocking of AA-induced apoptosis by caspase inhibitor” value (293 cells [3]; 293 cells preincubated 1 hr with inhibitor, AA 300 μM, 44 hr) was “not”.
